Target: SGK1 (human) (UniProt O00141)
Assay: Flashplate

Sequence of SGK1 (human) (O00141 whole entry, looked up): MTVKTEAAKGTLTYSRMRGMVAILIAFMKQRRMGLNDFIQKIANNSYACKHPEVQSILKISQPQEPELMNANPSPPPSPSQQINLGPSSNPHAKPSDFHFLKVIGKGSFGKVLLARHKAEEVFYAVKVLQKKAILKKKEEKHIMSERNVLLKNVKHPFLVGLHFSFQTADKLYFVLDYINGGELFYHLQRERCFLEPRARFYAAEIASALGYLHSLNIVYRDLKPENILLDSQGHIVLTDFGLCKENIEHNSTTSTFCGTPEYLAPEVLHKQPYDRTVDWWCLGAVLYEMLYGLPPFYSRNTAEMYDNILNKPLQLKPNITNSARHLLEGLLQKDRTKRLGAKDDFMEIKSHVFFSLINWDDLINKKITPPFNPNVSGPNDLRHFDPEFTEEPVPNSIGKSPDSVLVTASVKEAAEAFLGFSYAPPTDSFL

| Ki | SMILES |
| --- | --- |
| > 10 µM | Cc1cn2c(-c3ccnc(NCC(C)(C)CO)n3)c(-c3ccc(F)cc3F)nc2c(C)n1 |
| > 10 µM | Nc1ncnc2c1c(-c1cccc(OCc3ccccc3)c1)cn2[C@H]1C[C@H](CN2CCCC2)C1 |
| > 10 µM | CN(C)CCCC(=O)Nc1n[nH]c2nnc(-c3cccc(F)c3F)cc12 |
| > 10 µM | CN(C)C(=O)Nc1ccc2nc(-c3ccco3)c(-c3ccco3)nc2c1 |
| > 10 µM | N#C/C(=C\c1ccc(O)c(O)c1)C(=O)NCc1ccccc1 |
| > 10 µM | CCn1c2cc(Cl)c(F)cc2c(=O)c2c(=O)o[nH]c21 |
| > 10 µM | O=C1/C(=N\Nc2cccc3c(=O)[nH][nH]c(=O)c23)C(c2ccccc2)=NN1c1ccccc1 |
| > 10 µM | CC(C)N(C(=O)Nc1ccc2nc(-c3ccco3)c(-c3ccco3)nc2c1)C(C)C |
| > 10 µM | COc1ccc(/C=C2/S/C(=N/c3ccccc3)NC2=O)cc1OC |
| 0.501 µM | COc1cccc([C@@H](C)NC(=O)c2cnc(-c3ccncc3)s2)c1 |
| > 10 µM | O=C(Nc1cccc(N2CCOCC2)n1)Nc1ccnc2c(C(F)(F)F)cccc12 |
| > 10 µM | O=C1CCCc2oc3cc(C(F)(F)F)ccc3c(=O)c21 |
| > 10 µM | Cc1cccc(NC(=O)Nc2ccc3c(c2)CCc2sc4ncnc(N)c4c2-3)c1 |
| > 10 µM | NNc1cc(N2CCOCC2)nc(OCCc2ccccn2)n1 |
| > 10 µM | Cc1nccn2c(-c3ccnc(NCC4(O)CC4)n3)c(-c3ccc(F)cc3F)nc12 |
| 3.98 µM | Cc1ccc(CNc2c(Nc3ccncc3)c(=O)c2=O)cc1 |
| > 10 µM | C(=N\Nc1nc2ccccc2[nH]1)/c1c[nH]c2ccccc12 |
| > 10 µM | Cc1cccc(NC(=O)Nc2ccc(-c3ccc4nccnc4c3N)cc2)c1 |
| > 10 µM | C/C(=N/NC(=N)N)c1cc(NC(=O)NCCCN(C)CCCNC(=O)Nc2cc(/C(C)=N\NC(=N)N)cc(/C(C)=N/NC(=N)N)c2)cc(/C(C)=N/NC(=N)N)c1 |
| > 10 µM | Cc1cc(NC(=O)CCNC(=O)Nc2nc(C)c(-c3ccc(-n4cccn4)cc3)s2)no1 |
| 0.126 µM | NC(=O)c1cccc(-c2cnc3[nH]cc(-c4ccccc4)c3c2)c1 |
| > 10 µM | CN1CCN([C@H]2CC[C@H](n3cc(-c4ccc(Oc5ccccc5)cc4)c4c(N)ncnc43)CC2)CC1 |
| 0.251 µM | NC(=O)c1ccc(-c2c[nH]c3nccc(Cl)c23)cc1 |
| > 10 µM | Cc1ccc(CNc2ccc3nnc(-c4ccccc4)n3n2)cc1 |
| > 10 µM | CCCC(=O)Nc1n[nH]c2nnc(-c3cccc(F)c3F)cc12 |

| Ki | SMILES |
| --- | --- |
| > 10 µM | c1ccc(COc2ccc(Nc3ncnc4ccccc34)cc2)cc1 |
| 7.94 µM | OCC(CO)Nc1ncnc2[nH]cc(-c3ccccc3)c12 |
| > 10 µM | CC(C)(O)Cc1nnc2ccc(-c3c(-c4ccc(F)cc4F)nc4occn34)nn12 |
| > 10 µM | N#Cc1ccc(-c2n[nH]c3c2Cc2ccc(OCCN4CCOCC4)cc2-3)cn1 |
| > 10 µM | O=C1Cc2c([nH]c3ccc([N+](=O)[O-])cc23)-c2ccccc2N1 |
| > 10 µM | Cc1cc(C)cc(NC(=O)Nc2ccc(-c3cccc4c3CNC4=O)c(C(F)(F)F)c2)c1 |
| 2 µM | Cc1cccc(NC(=O)Nc2ccc(-c3coc4ncnc(N)c34)cc2)c1 |
| > 10 µM | Nc1nccn2c(C3CC(CN4CCCC4)C3)nc(-c3cccc(OCc4ccccc4)c3)c12 (stereo unspecified) |
| > 10 µM | CC(C)(C)C(=O)Oc1ccc2c(c1)nc(NC(=O)c1cccc([N+](=O)[O-])c1)n2CCCO |
| 5.01 µM | O=C(Nc1cnc2[nH]cc(-c3ccccc3)c2c1)c1ccc(Cl)cc1 |
| > 10 µM | Cc1n[nH]c2cccc(-c3ccc(NC(=O)Nc4cccc(C(F)(F)F)c4)cc3)c12 |
| 0.398 µM | Clc1cc(-c2c[nH]c3ncccc23)cc(NCc2ccccc2)n1 |
| > 6.31 µM | NC(=O)c1ccc(N[C@H]2CCCC[C@H]2N)nc1Nc1cccc(Cl)c1 |
| 0.316 µM | NCC(NC(=O)c1ccc(-c2ccncc2)cc1)c1ccccc1 (stereo unspecified) |
| 0.794 µM | O=c1nc(-c2cc3c(Oc4ccc(I)cc4)cncc3s2)[nH]o1 |
| > 10 µM | O=c1[nH]c2cc(Cl)cc(Cl)c2c(-c2cc(Cl)ccc2O)c1O |
| > 10 µM | Cc1cccc(/C=N/Nc2cc(N3CCOCC3)nc(OCCc3ccccn3)n2)c1 |
| 5.01 µM | O=C1Nc2ccccc2Nc2nnc(Cl)cc21 |
| 1 µM | Cc1nc(COc2ccccc2Cl)sc1-c1ccnc(N)n1 |
| > 10 µM | CCN(CC)CC#Cc1ccc2c(c1)-c1[nH]nc(-c3ccc(C#N)nc3)c1C2 |
| > 10 µM | Nc1ncnc2c1c(-c1cccc(OCc3ccccc3)c1)cn2[C@H]1CC[C@H](N2CCCC2)CC1 |
| > 10 µM | COc1ccc(-c2ccc(NC(=O)Nc3cccc(Br)c3)cc2)c2c(N)noc12 |
| > 10 µM | Cn1cc(-c2ccncn2)c(-c2ccc(F)cc2)n1 |
| > 7.94 µM | O=c1ncn2nc(Sc3ccc(F)cc3F)ccc2c1-c1c(Cl)cccc1Cl |
| 3.16 µM | Cc1ccc(C(=O)Nc2c(C(N)=O)sc3ccc(Cl)c(Cl)c23)cc1 |

| Ki | SMILES |
| --- | --- |
| > 10 µM | O=C(Nc1cnccn1)Nc1ccnc2c(F)cccc12 |
| 2.51 µM | c1cnc2nc(-c3ccc4[nH]ncc4c3)c(NC3CCCCC3)n2c1 |
| > 10 µM | Nc1ccc(-c2cncc(OC[C@@H](N)Cc3c[nH]c4ccccc34)c2)cc1C(=O)c1ccccc1 |
| 6.31 µM | CCOC(=O)c1ccc2[nH]c3c(c2c1)CCNC3=O |
| > 10 µM | COc1ccc(NC(=O)Nc2ccc(-c3csc4c(-c5cnn(CC(C)(C)O)c5)cnc(N)c34)cc2)cc1 |
| 0.0501 µM | N[C@H]1CC[C@H](Nc2nccc(-c3c[nH]c4ncccc34)n2)CC1 |
| > 10 µM | Cc1ccccc1NC(=O)Nc1ccc2c(c1)CCc1sc3ncnc(N)c3c1-2 |
| > 10 µM | COc1cc(Nc2ncc3c(n2)-c2ccc(Cl)cc2C(c2c(F)cccc2OC)=NC3)ccc1C(=O)O |
| > 10 µM | O=C(Nc1cccc(C(F)(F)F)n1)Nc1ccnc2c(Cl)c(Cl)ccc12 |
| > 10 µM | CC(C)=C(C)c1cccc2c(CCCOc3cccc(Cl)c3Cl)c(C(=O)O)[nH]c12 |
| > 10 µM | N#Cc1ncc2nc1OCCCCCOc1cc(OCCCO)c(Cl)cc1NC(=O)N2 |
| 3.16 µM | O=C(NCC1CCCCC1)c1cc2c(-c3ccccc3)n[nH]c2s1 |
| 5.01 µM | Cc1[nH]c(/C=C2\C(=O)Nc3ccccc32)c(C)c1CCC(=O)O |
| 3.16 µM | CC(C)(C(N)=O)n1cc(-c2cnc(N)c3c(-c4ccc(NC(=O)Nc5cccc(F)c5)cc4)csc23)cn1 |
| > 10 µM | COCCO[C@H]1CC[C@H](n2nc(-c3ccc(Nc4nc5cc(C)cc(C)c5o4)cc3)c3c(N)ncnc32)CC1 |
| > 10 µM | CCc1nc2c(c3cc(OC)c(OC)cc13)C(=O)NC2=O |
| > 10 µM | CCN(CC)CC#Cc1cnc(N)c2c(-c3ccc(NC(=O)Nc4cccc(C)c4)cc3)csc12 |
| > 10 µM | Cc1c(-c2cccc(OCc3ccccc3)c2)c2c(N)ncnc2n1[C@H]1C[C@H](CN2CCCC2)C1 |
| 5.01 µM | CNC(=O)c1cnc(N)c2c(-c3ccc(NC(=O)Nc4cc(C)ccc4F)cc3)csc12 |
| 2 µM | CN(C)C(=O)c1c(-c2ccc3[nH]ncc3c2)nnn1Cc1ccccc1 |
| 0.158 µM | CSc1cnc2c(ccc3cnccc32)c1O |
| > 10 µM | CC(C)(C)c1cc(NC(=O)Nc2cccc3ccccc23)n(-c2cccc(C(=O)NCC#N)c2)n1 |
| 0.316 µM | Cc1c(-c2ccc3[nH]nc(N)c3c2)nnn1Cc1ccccc1 |
| > 10 µM | CCCS(=O)(=O)Nc1ccc(-c2ccc3[nH]nc(NC(C)=O)c3c2)cc1 |
| 1.58 µM | CCCC(=O)Nc1n[nH]c2ccc(-c3nnn(Cc4ccccc4)c3-c3ccccc3)cc12 |

| SMILES | Ki |
| --- | --- |
| N[C@H](COc1cncc(-c2ccc3[nH]c(=O)oc3c2)c1)Cc1c[nH]c2ccccc12 | 5.01 µM |

Reference: the kinase profiling compilation of Christmann-Franck et al. (2016)
